Values of other authors as cited in US7741050B2, “Identification of agonistic autoantibodies” (Max-Delbrueck-Centrum fuer Molkulare Medizin, priority 2002, dated 2010).

Molecular target: T1, AT1 receptor of cultivated cardiomyocytes (Rattus norvegicus, UniProt P25095)
T1 construct: can stimulate the AT1 receptor of cultivated cardiomyocytes; endogenous in cells; host or cells: primary cultivated cardiomyocytes of newborn rats
T1 sequence (P25095 1-359): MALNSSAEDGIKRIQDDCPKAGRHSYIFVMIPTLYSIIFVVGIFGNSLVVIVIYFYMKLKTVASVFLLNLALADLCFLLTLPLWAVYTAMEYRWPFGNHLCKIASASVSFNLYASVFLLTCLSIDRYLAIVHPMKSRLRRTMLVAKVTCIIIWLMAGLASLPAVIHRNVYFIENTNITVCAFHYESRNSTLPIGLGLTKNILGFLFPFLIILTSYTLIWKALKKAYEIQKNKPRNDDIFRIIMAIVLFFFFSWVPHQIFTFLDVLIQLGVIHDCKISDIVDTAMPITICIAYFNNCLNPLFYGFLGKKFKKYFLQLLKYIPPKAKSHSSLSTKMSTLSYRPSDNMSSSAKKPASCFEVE
Details: Losartan 1 μM added to cardiomyocytes stimulated by antibodies of preeclamptic women; cited from earlier work

## CCCCc1nc(Cl)c(CO)n1Cc1ccc(-c2ccccc2-c2nn[nH]n2)cc1 [Losartan]
  beats per minute: reduced
